The experiment deals with T1, E3 ubiquitin-protein ligase XIAP [241-356] (Homo sapiens, UniProt P98170).
T1 construct: 241-356
The experiment is described as follows: Fluorescence Polarization Competitive Binding Assay. The note with it: pH 7.5; 22 °C. Background: In fluorescence polarisation assays a small probe gives low polarisation when free and higher when bound to something large.

What is called Ki is the equilibrium dissociation constant of an inhibitor or competing ligand from its target. A low value points to a stronger hold on the target.

T1 sequence (P98170 241-356): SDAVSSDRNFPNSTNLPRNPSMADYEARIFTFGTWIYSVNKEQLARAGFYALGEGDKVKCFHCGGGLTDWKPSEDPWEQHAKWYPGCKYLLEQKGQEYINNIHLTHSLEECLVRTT
Experimental: A quantitative in vitro binding assay using the fluorescence polarization (FP) based method was developed and used to determine the binding affinity of Smac mimetics to XIAP protein. The polarization values were measured after 3 hrs of incubation when the binding reached equilibrium. […] Curve fitting was performed using Prism ([sequence]). The binding affinity (Ki) of tested compound was calculated using the equation developed for computing the Ki value in FP-based binding assays.

Take `C[C@H](N)C(=O)N[C@H]1CC[C@H]2CC[C@@H](C(=O)Nc3ccccc3)N2C1=O` [(3S,6S,8aS)-6-[(2S)-2-aminopropanamido]-5-oxo-N-phenyl-octahydroindolizine-3-carboxamide]: the Ki is greater than 100 µM.

For the origin of these results see BindingDB's records for doi:10.1021/jm0499108 (University of Michigan, 2004).
